By IC50 is commonly meant the midpoint of a concentration-inhibition curve.

wild type CK1δ, sequence (P48730 whole entry): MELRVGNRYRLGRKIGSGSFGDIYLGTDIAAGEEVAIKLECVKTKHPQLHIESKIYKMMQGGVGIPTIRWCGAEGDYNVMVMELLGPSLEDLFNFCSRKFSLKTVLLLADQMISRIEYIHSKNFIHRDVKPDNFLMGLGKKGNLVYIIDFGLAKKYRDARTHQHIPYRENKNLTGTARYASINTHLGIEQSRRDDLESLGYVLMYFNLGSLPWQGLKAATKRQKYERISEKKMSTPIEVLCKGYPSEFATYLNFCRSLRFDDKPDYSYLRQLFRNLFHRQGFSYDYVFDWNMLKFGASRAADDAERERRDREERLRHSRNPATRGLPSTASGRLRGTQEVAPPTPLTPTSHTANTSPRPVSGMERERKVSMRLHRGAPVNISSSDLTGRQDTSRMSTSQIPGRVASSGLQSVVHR

The assay concerns the target wild type CK1δ (Homo sapiens, UniProt P48730). Description: CK1δ kinase assay (Kinase-Glo). The note with it: 10 μM ATP, 2 nM wild type CK1δ, 85 min at 25° C.; read-out: CK1δ inhibition (IC50). The class given is biochemical. How it is done:
The CK1δ kinase assay was performed with a buffer (40 μL, pH 7.5) containing 50 mM Tris, 10 mM MgCl2, 1 mM dithiothreitol, 100 μg/mL BSA with 10 μM ATP, 2 nM wild type CK1δ, and 42 μM peptide substrate PLSRTLpSVASLPGL (Flotow et al., 1990) in the presence of 1 μL of a CK1δ inhibitor (e.g., a compound of the present application) or 4% DMSO (e.g., as control). The reaction mixture was incubated for 85 min at 25° C.; detection was carried out as described for the Kinase-Glo Assay (Promega). Luminescent output was measured on the Perkin Elmer Envision plate reader (PerkinElmer, Waltham, Mass.).
(Kinase-Glo measures the ATP left after a reaction by luminescence.)
In the case of `Cn1cc(-c2ccncc2)c(-c2ccc(F)cc2)c1C(N)=O` [Compound 3-2, 3-(4-fluorophenyl)-1-methyl-4-(pyridin-4-yl)-1H-pyrrole-2-carboxamide], the IC50 came out at 11100 nM.

`CC(=O)N1CCn2c(nc(-c3ccc(F)cc3)c2-c2ccncc2)C1` [Compound 1-7, 1-(2-(4-fluorophenyl)-3-(pyridin-4-yl)-5,6-dihydroimidazo[1,2-a]pyrazin-7(8H)-yl)ethan-1-one]: the IC50 stood at 614 nM.

With `CC(=O)N1CCn2nc(-c3ccc(F)cc3)c(-c3cc[n+]([O-])c(C)c3)c2C1` [Compound 1-34, 4-(5-acetyl-2-(4-fluorophenyl)-4,5,6,7-tetrahydropyrazolo[1,5-a]pyrazin-3-yl)-2-methylpyridine-1-oxide], the IC50 is above 100000 nM.

Consider `Cn1nnc(-c2ccc(F)cc2)c1-c1ccncc1` [Compound 3-9, 4-(4-(4-fluorophenyl)-1-methyl-1H-1,2,3-triazol-5-yl)pyridine], for which the IC50 is 21400 nM.

Turning to `CCC(=O)N1CCn2nc(-c3ccc(F)cc3)c(-c3ccncc3)c2C1` [Compound 1-31, 1-(2-(4-fluorophenyl)-3-(pyridin-4-yl)-6,7-dihydropyrazolo[1,5-a]pyrazin-5(4H)-yl)propan-1-one], the IC50 was 81.3 nM.

Consider `Cn1cc(-c2ccncc2)c(-c2ccccc2F)n1` [Compound 3-14, 4-(3-(2-fluorophenyl)-1-methyl-1H-pyrazol-4-yl)pyridine], for which the IC50 is 1080 nM.

For `Fc1ccc(-n2nc3c(c2-c2ccncc2)CCCC3)cc1` [Compound 1-16, 2-(4-fluorophenyl)-3-(pyridin-4-yl)-4,5,6,7-tetrahydro-2H-indazole], the IC50 is 9780 nM.

With `C[C@H]1Cn2nc(-c3ccc(F)cc3)c(-c3ccncc3)c2CO1` [Compound 1-45, (S)-2-(4-fluorophenyl)-6-methyl-3-(pyridin-4-yl)-6,7-dihydro-4H-pyrazolo[5,1-c][1,4]oxazine], the IC50 came out at 370 nM.

In the case of `O=C1OCc2nccc(-c3cn4c(c3-c3ccc(F)cc3)C(=O)NCC4)c21` [Compound 5-5, 4-(8-(4-fluorophenyl)-1-oxo-1,2,3,4-tetrahydropyrrolo[1,2-a]pyrazin-7-yl)furo[3,4-b]pyridin-5(7H)-one], the IC50 was 320 nM.

As to `O=C1OCc2nccc(-c3c(-c4ccc(F)cc4)nc4cnccn34)c21` [Compound 1-8, 4-(2-(4-fluorophenyl)imidazo[1,2-a]pyrazin-3-yl)furo[3,4-b]pyridin-5(7H)-one], the IC50 was above 100000 nM.

For `Fc1ccc(-c2nocc2-c2ccncc2)cc1` [Compound 3-20, 3-(4-fluorophenyl)-4-(pyridin-4-yl)isoxazole], the IC50 was determined as 3660 nM.

Consider `Cn1cc(-c2ccncc2)c(-c2ccc(F)cc2F)n1` [Compound 3-15, 4-(3-(2,4-difluorophenyl)-1-methyl-1H-pyrazol-4-yl)pyridine], for which the IC50 came out at 531 nM.

For `CN1CCC(C(=O)N2CCn3nc(-c4ccc(F)cc4)c(-c4ccncc4)c3C2)CC1` [Compound 1-36, (2-(4-fluorophenyl)-3-(pyridin-4-yl)-6,7-dihydropyrazolo[1,5-a]pyrazin-5(4H)-yl)(1-methylpiperidin-4-yl)methanone], the IC50 was 279 nM.

For `Fc1ccc(-c2nn3c(c2-c2ccncc2)CNCC3)cc1` [Compound 1-13, 2-(4-fluorophenyl)-3-(pyridin-4-yl)-4,5,6,7-tetrahydropyrazolo[1,5-a]pyrazine], the IC50 came to 67.3 nM.

As for `COC(=O)c1[nH]cc(-c2ccncc2)c1-c1ccc(F)cc1` [Compound 3-4, methyl 3-(4-fluorophenyl)-4-(pyridin-4-yl)-1H-pyrrole-2-carboxylate], the IC50 is 480 nM.

With `CCc1cc(-c2c(-c3ccc(F)cc3)nn3c2CN(C(C)=O)CC3)ccn1` [Compound 1-52, 1-(3-(2-ethylpyridin-4-yl)-2-(4-fluorophenyl)-6,7-dihydropyrazolo[1,5-a]pyrazin-5(4H)-yl)ethan-1-one], the IC50 worked out at 3110 nM.

For the molecule `Fc1ccc(-c2nn3c(c2-c2ccncc2)CN(Cc2ccccc2)CC3)cc1` [Compound 1-12, 5-benzyl-2-(4-fluorophenyl)-3-(pyridin-4-yl)-4,5,6,7-tetrahydropyrazolo[1,5-a]pyrazine], the IC50 is 74.9 nM.

Take `Cn1cc(-c2ccncc2)c(-c2ccc(F)c(F)c2)n1` [Compound 3-16, 4-(3-(3,4-difluorophenyl)-1-methyl-1H-pyrazol-4-yl)pyridine]: the IC50 amounted to 497 nM.

In the case of `Fc1ccc(-c2nc3n(c2-c2ccncc2)CCNC3)cc1` [Compound 1-6, 2-(4-fluorophenyl)-3-(pyridin-4-yl)-5,6,7,8-tetrahydroimidazo[1,2-a]pyrazine], the IC50 is 254 nM.

Take `Fc1ccc(-c2nn3c(c2-c2ccncc2)COCCC3)cc1` [Compound 1-47, 2-(4-fluorophenyl)-3-(pyridin-4-yl)-7,8-dihydro-4H,6H-pyrazolo[5,1-c][1,4]oxazepine]: the IC50 worked out at 686 nM.

Turning to `Fc1ccc(-c2nn3c(c2-c2ccncc2)COCC3)cc1` [Compound 1-27, 2-(4-fluorophenyl)-3-(pyridin-4-yl)-6,7-dihydro-4H-pyrazolo[5,1-c][1,4]oxazine], the IC50 turned out to be 163 nM.

In the case of `CC(=O)N1CCn2nc(-c3ccc(F)cc3)c(-c3ccnc(C)n3)c2C1` [Compound 1-51, 1-(2-(4-fluorophenyl)-3-(2-methylpyrimidin-4-yl)-6,7-dihydropyrazolo[1,5-a]pyrazin-5(4H)-yl)ethan-1-one], the IC50 amounted to 963 nM.

`COC(=O)c1c(-c2ccc(F)cc2)c(-c2ccncc2)cn1C` [Compound 3-5, methyl 3-(4-fluorophenyl)-1-methyl-4-(pyridin-4-yl)-1H-pyrrole-2-carboxylate]: the IC50 came to 7710 nM.

Consider `Cn1nc(-c2ccncc2)c(-c2ccc(F)cc2)n1` [Compound 3-6, 4-(5-(4-fluorophenyl)-2-methyl-2H-1,2,3-triazol-4-yl)pyridine], for which the IC50 worked out at 178 nM.

Consider `Cn1cc(-c2ccncc2)c(-c2cccc(F)c2)n1` [Compound 3-19, 4-(3-(3-fluorophenyl)-1-methyl-1H-pyrazol-4-yl)pyridine], for which the IC50 turned out to be 281 nM.

`Cc1cc(-c2ccnc3c2C(=O)OC3)n(-c2ccc(F)cc2)n1` [Compound 6-1, 4-(1-(4-fluorophenyl)-3-methyl-1H-pyrazol-5-yl)furo[3,4-b]pyridin-5(7H)-one]: the IC50 is 93 nM.

Regarding `Cn1cc(-c2ccnc3[nH]cnc23)c(-c2ccc(F)cc2)c1C#N` [Compound 5-4, 3-(4-fluorophenyl)-4-(3H-imidazo[4,5-b]pyridin-7-yl)-1-methyl-1H-pyrrole-2-carbonitrile], the IC50 stood at 2200 nM.

Regarding `CC(=O)N1CCn2nc(-c3ccc(F)cc3)c(-c3ccnc(C(C)C)c3)c2C1` [Compound 1-53, 1-(2-(4-fluorophenyl)-3-(2-isopropylpyridin-4-yl)-6,7-dihydropyrazolo[1,5-a]pyrazin-5(4H)-yl)ethan-1-one], the IC50 came out at 17000 nM.

For `Fc1ccc(-c2nc3cnccn3c2-c2ccncc2)cc1` [Compound 1-5, 2-(4-fluorophenyl)-3-(pyridin-4-yl)imidazo[1,2-a]pyrazine], the IC50 is 499 nM.

For `Nc1cc(-c2c(-c3ccc(F)cc3)nn3c2CNCC3)ccn1` [Compound 1-58, 4-(2-(4-fluorophenyl)-4,5,6,7-tetrahydropyrazolo[1,5-a]pyrazin-3-yl)pyridin-2-amine], the IC50 came out at 723 nM.

With `Cc1cc(-c2c(-c3ccc(F)cc3)nn3c2CN(C(=O)C2CCN(C)CC2)CC3)ccn1` [Compound 1-55, (2-(4-fluorophenyl)-3-(2-methylpyridin-4-yl)-6,7-dihydropyrazolo[1,5-a]pyrazin-5(4H)-yl)(1-methylpiperidin-4-yl)methanone], the IC50 is 496 nM.

As to `Cn1cc(-c2ccncc2)c(-c2ccc(F)cc2)c1C#N` [Compound 3-1, 3-(4-fluorophenyl)-1-methyl-4-(pyridin-4-yl)-1H-pyrrole-2-carbonitrile], the IC50 was determined as 180 nM.

As to `CC(=O)N1CCn2nc(-c3ccc(F)cc3)c(-c3ccnc(C)c3)c2C1` [Compound 1-33, 1-(2-(4-fluorophenyl)-3-(2-methylpyridin-4-yl)-6,7-dihydropyrazolo[1,5-a]pyrazin-5(4H)-yl)ethan-1-one], the IC50 was determined as 177 nM.

In the case of `CC(C)C(=O)N1CCn2nc(-c3ccc(F)cc3)c(-c3ccncc3)c2C1` [Compound 1-32, 1-(2-(4-fluorophenyl)-3-(pyridin-4-yl)-6,7-dihydropyrazolo[1,5-a]pyrazin-5(4H)-yl)-2-methylpropan-1-one], the IC50 was determined as 368 nM.

On to `CN1CCn2nc(-c3ccc(F)cc3)c(-c3ccncc3)c2C1` [Compound 1-42, 2-(4-fluorophenyl)-5-methyl-3-(pyridin-4-yl)-4,5,6,7-tetrahydropyrazolo[1,5-a]pyrazine], for which the IC50 is 161 nM.

As to `Cn1cc(-c2ccnc3c2C(=O)OC3)c(-c2ccc(F)cc2)c1C#N` [Compound 5-1, 3-(4-fluorophenyl)-1-methyl-4-(5-oxo-5,7-dihydrofuro[3,4-b]pyridin-4-yl)-1H-pyrrole-2-carbonitrile], the IC50 worked out at 132 nM.

Consider `Cn1cc(-c2ccncc2)c(-c2cc(F)cc(F)c2)n1` [Compound 3-17, 4-(3-(3,5-difluorophenyl)-1-methyl-1H-pyrazol-4-yl)pyridine], for which the IC50 was found to be 1020 nM.

In the case of `Cc1cc(-c2c(-c3ccc(F)cc3)nn3c2CN(C)CC3)ccn1` [Compound 1-56, 2-(4-fluorophenyl)-5-methyl-3-(2-methylpyridin-4-yl)-4,5,6,7-tetrahydropyrazolo[1,5-a]pyrazine], the IC50 is 106 nM.

`C[C@@H]1CNC(=O)c2c(-c3ccncc3)c(-c3ccc(F)cc3)nn21` [Compound 1-44, (R)-2-(4-fluorophenyl)-7-methyl-3-(pyridin-4-yl)-6,7-dihydropyrazolo[1,5-a]pyrazin-4(5H)-one]: the IC50 stood at 1840 nM.

The record behind these values is US20230192699A1, “COMPOUNDS AS CASEIN KINASE INHIBITORS” (GRITSCIENCE BIOPHARMACEUTICALS CO., LTD., priority 2020, published 2023).
